Reference: PubChem BioAssay (NCI)
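Step 1: Grow cells in 96-well plates. Step 2: Expose to compound for 48 hours at 5 concentrations. Step 3: Interpolate endpoints linearly; if unreached, use highest concentration. Abbreviation: GI50, concentration required for 50% inhibition of growth. TGI marks complete inhibition of growth.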

How the values were obtained:
Assay in all cases: NCI tumour cell line growth inhibition, 48 h
COLO 205 colon = system: COLO 205 colon
OVCAR-4 ovarian = system: OVCAR-4 ovarian
SK-OV-3 ovarian = system: SK-OV-3 ovarian
SF-539 CNS = system: SF-539 CNS
RXF 393 renal = system: RXF 393 renal
UACC-62 melanoma = system: UACC-62 melanoma
MOLT-4 leukemia = system: MOLT-4 leukemia
MCF7 breast = system: MCF7 breast
A498 renal = system: A498 renal
T-47D breast = system: T-47D breast

Row | SMILES | TGI (COLO 205 colon) | TGI (OVCAR-4 ovarian) | TGI (SK-OV-3 ovarian) | TGI (SF-539 CNS) | TGI (RXF 393 renal) | TGI (UACC-62 melanoma) | TGI (MOLT-4 leukemia) | GI50 (OVCAR-4 ovarian) | GI50 (MCF7 breast) | TGI (MCF7 breast) | GI50 (SF-539 CNS) | GI50 (A498 renal) | TGI (A498 renal) | GI50 (UACC-62 melanoma) | GI50 (MOLT-4 leukemia) | GI50 (COLO 205 colon) | GI50 (SK-OV-3 ovarian) | GI50 (RXF 393 renal) | GI50 (T-47D breast) | TGI (T-47D breast)
1 | O=c1[nH]c2ccc([N+](=O)[O-])cc2nc1/C(=N/Nc1ccccc1)C(O)c1ccco1 (configuration not stated) | > 100 µM | > 100 µM | > 100 µM | > 100 µM | > 100 µM | > 100 µM | > 100 µM | – | – | – | – | – | – | – | – | – | – | – | – | –
2 | Nc1ncc(C2[C@H](CNC(=O)c3cc(Br)c[nH]3)C(CNC(=O)c3cc(Br)c[nH]3)[C@@H]2c2cnc(N)[nH]2)[nH]1 (some centres not stated) | – | > 50 µM | – | > 50 µM | – | > 50 µM | > 50 µM | > 50 µM | > 50 µM | > 50 µM | 8.79 µM | > 50 µM | > 50 µM | > 50 µM | 48.4 µM | – | – | – | – | –
3 | Nc1ccc(C(=O)/C=C/c2ccccc2O)cc1 | > 100 µM | > 100 µM | > 100 µM | > 100 µM | > 100 µM | > 100 µM | > 100 µM | – | – | – | – | – | > 100 µM | – | – | – | – | – | – | –
4 | N#CCC1(n2cc(-c3ncnc4[nH]ccc34)cn2)CN(C2CCN(C(=O)c3ccnc(C(F)(F)F)c3F)CC2)C1 | > 100 µM | > 100 µM | > 100 µM | > 100 µM | > 100 µM | > 100 µM | > 100 µM | > 100 µM | – | – | 37.9 µM | 29.1 µM | > 100 µM | 76.4 µM | 49.9 µM | 57.8 µM | > 100 µM | 28.2 µM | 51.7 µM | > 100 µM
5 | [Cl-].[Gd+3].[O-]/N=C(\c1ccccc1)c1ccccn1.[O-]/N=C(\c1ccccc1)c1ccccn1.[O-]/N=C(\c1ccccc1)c1ccccn1 | > 100 µM | > 100 µM | > 100 µM | > 100 µM | – | > 100 µM | > 100 µM | 43.7 µM | – | – | > 100 µM | > 100 µM | > 100 µM | 40.7 µM | 40.5 µM | 47.2 µM | 48 µM | – | – | –
6 | C/C(CC(=O)Nc1cccc([N+](=O)[O-])c1)=N\NC(=O)C[n+]1ccccc1 | > 100 µM | – | > 100 µM | > 100 µM | > 100 µM | > 100 µM | > 100 µM | – | – | – | – | – | – | – | – | – | – | – | – | –
7 | c1ccc2c3c([nH]c2c1)C1C2CCCCN2C(c2ccncc2)N1CC3 (configuration not stated) | > 100 µM | > 100 µM | > 100 µM | > 100 µM | 83.4 µM | > 100 µM | > 100 µM | – | – | – | – | – | – | – | – | – | – | – | – | –
8 | CCCCCCCCCCCCCCCC(=O)OCC1OC(n2cc(F)c(=O)[nH]c2=O)C(NC(=O)N(CCCl)N=O)C(O)C1O (configuration not stated) | 9.51 µM | 20.5 µM | 14.3 µM | 1.36 µM | 8.37 µM | 1.17 µM | > 39.9 µM | – | – | – | – | – | 10.1 µM | – | – | – | – | – | – | –
9 | COC(=O)CC1CC2(C(=O)OC)c3[nH]c4ccccc4c3CCN2C1=O (configuration not stated) | > 100 µM | > 100 µM | > 100 µM | > 100 µM | > 100 µM | > 100 µM | > 100 µM | – | – | – | – | – | > 100 µM | – | – | – | – | – | – | –
10 | O=C(C(=O)c1cc(Br)ccc1O)c1cc(Br)ccc1O | 44.5 µM | > 100 µM | 30.2 µM | 18.6 µM | – | 17 µM | 19.9 µM | 6.04 µM | 7.34 µM | > 100 µM | 4.01 µM | – | – | 3.94 µM | 3.28 µM | 18.6 µM | 4.42 µM | – | 3.87 µM | > 100 µM
11 | COc1ccc2c(c1)[n+](=O)c(C(C)=O)c(C)n2[O-] | > 100 µM | > 100 µM | > 100 µM | > 100 µM | > 100 µM | > 100 µM | > 100 µM | – | – | – | – | – | – | – | – | – | – | – | – | –
12 | O=C(Nc1ccc(C(F)(F)F)cc1[N+](=O)[O-])c1cccnc1 | > 100 µM | > 100 µM | > 100 µM | 25.5 µM | – | 90.8 µM | > 100 µM | – | – | – | – | – | > 100 µM | – | – | – | – | – | – | > 100 µM
13 | COC(=O)C1CCC(=O)N1/C(C)=N/NC(=O)Nc1ccc(Cl)c(Cl)c1 (configuration not stated) | > 100 µM | > 100 µM | > 100 µM | > 100 µM | > 100 µM | > 100 µM | > 100 µM | – | – | – | – | – | > 100 µM | – | – | – | – | – | – | –
14 | CN(C)c1ccc(N=C2C=CC(=C(C#N)C#N)c3ccccc32)cc1 | 0.199 µM | 6.13 µM | 6.53 µM | 0.576 µM | 8.6 µM | 3.32 µM | 8.04 µM | – | – | 7.51 µM | – | – | 1.37 µM | – | – | – | – | – | – | –
15 | Clc1ccc2c(NCCCN3CCN(c4nc(N5CCOCC5)nc5ccccc45)CC3)ccnc2c1 | 3.32 µM | 4.64 µM | – | 3.14 µM | 3.1 µM | 3.36 µM | 3.9 µM | 1.9 µM | – | – | 1.68 µM | 1.57 µM | 3.11 µM | 1.9 µM | 1.36 µM | 1.66 µM | – | 1.65 µM | 2.32 µM | 5.09 µM
16 | O=C(O)Cn1ccc(=O)c2cc([N+](=O)[O-])ccc21 | > 100 µM | – | > 100 µM | > 100 µM | – | > 100 µM | > 100 µM | – | – | > 100 µM | – | – | > 100 µM | – | – | – | – | – | – | > 100 µM
17 | CN(C)c1ccc(C2CC(C)(O)Oc3cc4c(cc32)OCO4)cc1 (configuration not stated) | 50.3 µM | – | > 100 µM | > 100 µM | > 100 µM | > 100 µM | > 100 µM | – | – | > 100 µM | – | – | – | – | – | – | – | – | – | > 100 µM
18 | CCCCCCCCCCCCCCC(C)CCC(=O)O (configuration not stated) | > 100 µM | > 100 µM | – | > 100 µM | > 100 µM | > 100 µM | – | – | – | – | – | – | > 100 µM | – | – | – | – | – | – | –
19 | CC1=CCN(c2ccccn2)OC1c1ccccc1 (configuration not stated) | > 100 µM | > 100 µM | > 100 µM | > 100 µM | > 100 µM | > 100 µM | > 100 µM | – | – | – | – | – | – | – | – | – | – | – | – | –
20 | CCOc1ccccc1NC(=O)C1=C(C)NC(C)=C(C(=O)Nc2ccccc2OCC)C1c1ccc([N+](=O)[O-])cc1 | > 100 µM | > 100 µM | > 100 µM | > 100 µM | > 100 µM | > 100 µM | – | – | – | – | – | – | > 100 µM | – | – | – | – | – | – | –
21 | O=C(/C=C(\[O-])c1ccccc1)CCCCCCC(=O)/C=C(\[O-])c1ccccc1.O=C(/C=C(\[O-])c1ccccc1)CCCCCCC(=O)/C=C(\[O-])c1ccccc1.O=C(/C=C(\[O-])c1ccccc1)CCCCCCC(=O)/C=C(\[O-])c1ccccc1.[Nd+3].[Nd+3] | > 50 µM | > 50 µM | > 50 µM | > 50 µM | – | > 50 µM | > 50 µM | > 50 µM | – | – | > 50 µM | > 50 µM | > 50 µM | > 50 µM | 27.5 µM | > 50 µM | > 50 µM | – | – | –
